Legend:
BCLXL WT = BCLXL WT (Homo sapiens (Human), UniProt Q07817); assay: TR-FRET competitive binding assay, BCLXL WT; conditions: for Ki: BCLXL WT, Ki determined from IC50, read-out: TR_FRET EKI BclxL; for TR_FRET EKI BCLxL/WT selectivty ratio: ratio Ki BCLxL / Ki BCL2 WT
Protocol: (§1) The relative binding potency of each compound was determined in a competitive binding assay using time resolved-fluorescence resonance energy transfer (TR-FRET). The method utilised a fluorescein labelled peptide derived from PUMA (5Flu-Ahx-[…]-NH2 wherein Ahx means 6-hexanoic acid monomer and the amino acid sequence is referred to as SEQ ID:01) which binds to a terbium labelled BCL2 or BCLXL protein. The degree of binding or corresponding compound inhibition can be quantified by the TR-FRET signal between the terbium donor and fluorescein acceptor.
(§2) The human BCL2_wild-type (also named BCL2_wt), BCL2_G101V mutant and BCLXL_wild-type were E. coli expressed as a N-terminal Halo-fusion proteins and singly labelled with Terbium on the Halo protein to afford the following amino acid sequences:
(§3) wherein the BCL2(1-207) sequence corresponds to UniProtKB® primary accession number P10415 and the BCLXL(2-196) sequence corresponds to UniProtKB® primary accession number Q07817-1.
(§4) The assay was performed in a 40 μL volume in white 384-standard well plates (Corning #3574). An 11-point serial dilution of each compound was prepared in DMSO and transferred directly to plate followed by addition of fluorescein labelled peptide and lastly protein. Final assay conditions were 0.5 nM BCL2_wt, BCL2_G101V, BCL2_D103Y, BCL2_F104I, BCL2_D111A or BCLXL_wt, 2 or 20 nM fluorescein labelled peptide, 50 mM Hepes pH 7.5, 150 mM NaCl, 0.5 mM TCEP (Tris(2-carboxyethyl)phosphine), 0.05% Tween 20, 5% DMSO. The mixture was incubated for 2 hours at 23° C.
(§5) TR-FRET measurements were performed on a Biotek Synergy Neo plate reader. TR-FRET was measured by excitation of the Terbium-donor at 340 nm and subsequent (delay time 100 μs) measurement of terbium and fluorescein emission at 495 nm and 520 nm, respectively, over a collection time of 300 μs. The TR-FRET signal was calculated as the emission-ratio at 520 nm over 495 nm.
(§6) The TR-FRET ratio readout for test compounds was normalized against 0% inhibition controls wells and 100% inhibition control wells. Test compound potency (IC50) was estimated by nonlinear regression using the sigmoidal dose-response (variable slope) using Xlfit 4 (IDBS, Guildford, Surrey, UK, model 205). Were the IC50 could not be determined the % inhibition at the highest tested concentration is given.
(§7) y=(A+((B−A)/(1+((C/x)^D))))
(§8) where y is the normalized TR-TRET ratio measurement for a given concentration of test compound, x is the concentration of test compound, A is the estimated efficacy (% inhibition) at infinite compound dilution, and B is the maximal efficacy (% inhibition). C is the IC50 value and D is the Hill slope coefficient.
(§9) The K1 values were determined from the IC50 values according to Cer et al, Nucleic Acids Res, 2009, July 1; 37 (WebServer issue): W441-W445.

BCL2 WT = BCL2 WT (Homo sapiens (Human), UniProt P10415); assay: TR-FRET competitive binding assay, BCL2 WT; conditions: Ki determined from IC50, read-out: TR_FRET EKI_Bcl2 WT
Protocol: as §1, §2, §3, §4, §5, §6, §7, §8, §9

BCL2 G101V [1] = target: BCL2 G101V (Homo sapiens, UniProt P10415, G101V); assay: TR-FRET competitive binding assay, BCL2 G101V; conditions: BCL2 G101V; Ki determined from IC50; read-out: TR_FRET EKI_Bcl2 G101V
Protocol: as §1, §2, §3, §4, §5, §6, §7, §8, §9

BCL2 G101V [2] = assay: TR-FRET competitive binding assay, BCL2 G101V; parameters: species or system human; conditions: ratio Ki BCL2 G101V / Ki BCL2 WT
Protocol: as §1, §2, §3, §4, §5, §6, §7, §8, §9

BCL2 D103Y = BCL2 D103Y (Homo sapiens, UniProt P10415, D103Y); assay: TR-FRET competitive binding assay, BCL2 D103Y; conditions: Ki determined from IC50, read-out: TR_FRET EKI_Bcl2 D103Y
Protocol: as §1, §2, §3, §4, §5, §6, §7, §8, §9

KMS-12-PE Bcl-2 WT = assay: In vitro cytotoxicity CellTiter-Glo 48 h, KMS-12-PE Bcl-2 WT; assay type: cell-based; conditions: Homo sapiens, KMS-12-PE, C50 = concentration needed to reach 50% of the cellular viability
Protocol: KMS-12-PE (ACC 606) were purchased from the Leibniz-Institute DSMZ (Braunschweig, Germany) and were grown at 37° C. in a humidified atmosphere with […] in media recommended by the suppliers. Lentiviral particles containing Bcl-2 wild type (also named “Bcl2 WT”) and Bcl-2 mutated on G101V (also named “Bcl2 G101V”) were cloned into pcLV-CMV-DEST-IRES-TagRFP. Lentiviral particles (1×106) were mixed with Polybrene at 8 µg/ml and transduced by spinoculation for 1 h at 32° C. and incubated overnight. After 8 days, TagRFP positive-cells were sorted by FACS. BCL2 expression was monitored by immunoblotting using anti-Flag and anti-BCL2 antibodies.
Cellular viability was monitored with the cell viability assay (CellTiter-Glo®) on KMS-12-PE WT and G101V cell lines. The CellTiter-Glo® (CTG) Luminescent Cell Viability Assay (from Promega) is a homogeneous method to determine the number of viable cells in culture based on quantitation of the ATP present, which signals the presence of metabolically active cells.
Dose response of compounds are performed with 10 mM stock solutions (DMSO), 11-points curve, in a 384-well compound plate. The assay plate is prepared by stamping 40 nL from compound dilution plate of all different concentrations (e.g. 10 mM to have final […] assay test) into a cell culture microplate, using Echo acoustic liquid handling (Labcyte, Beckman). 40 μl of cell solution is added and cells are incubated with compounds for 48 h at 37° C., 5% CO2. CTG was added to the cells (according to the manufacturer instructions) and luminescence intensity was recorded using the Pherastar plate reader (BMG).
This assay provides in vitro cellular potency of the tested Bcl-2 inhibitors, measuring the C50, defined as the concentration needed to reach 50% of the cellular viability.

BCLXL WT, sequence (Q07817 other isoform, or with tags, fused parts or gaps): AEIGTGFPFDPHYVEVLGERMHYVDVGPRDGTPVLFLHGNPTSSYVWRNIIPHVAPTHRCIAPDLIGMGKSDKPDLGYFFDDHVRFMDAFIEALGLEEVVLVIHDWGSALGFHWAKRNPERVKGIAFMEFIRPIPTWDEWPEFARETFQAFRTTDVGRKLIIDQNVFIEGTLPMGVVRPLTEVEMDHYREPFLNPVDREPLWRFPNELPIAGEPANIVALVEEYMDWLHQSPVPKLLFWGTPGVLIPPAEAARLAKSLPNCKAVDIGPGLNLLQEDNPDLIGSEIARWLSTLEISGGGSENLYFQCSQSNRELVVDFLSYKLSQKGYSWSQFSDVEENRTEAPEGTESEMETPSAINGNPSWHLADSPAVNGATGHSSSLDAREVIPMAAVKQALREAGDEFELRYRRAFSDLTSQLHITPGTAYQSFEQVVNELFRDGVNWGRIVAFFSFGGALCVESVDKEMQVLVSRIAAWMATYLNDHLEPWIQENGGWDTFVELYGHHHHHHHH

| SMILES | Ki (BCLXL WT) [nM] | TR_FRET EKI BCLxL/WT selectivty ratio (BCLXL WT) | Ki (BCL2 WT) [nM] | Ki (BCL2 G101V [1]) [nM] | TR_FRET EKI G101V/WT selectivty ratio (BCL2 G101V [2]) | Ki (BCL2 D103Y) [nM] | IC50 (KMS-12-PE Bcl-2 WT) [µM] |
| --- | --- | --- | --- | --- | --- | --- | --- |
| COc1ccc(N(C(=O)c2cc(-c3cc4c(cc3C(=O)N3Cc5ccccc5C[C@H]3CN3CC5(CCC5)C3)CN(C(=O)Cc3ccc(OCCN5CCOCC5)cc3F)CC4)n(C)c2C)c2ccc(O)cc2)cc1C#N [Example 181, 5-[7-[(3S)-3-(2-azaspiro[3.3]heptan-2-ylmethyl)-3,4-dihydro-1H-isoquinoline-2-carbonyl]-2-[2-[2-fluoro-4-(2-morpholinoethoxy)phenyl]acetyl]-3,4-dihydro-1H-isoquinolin-6-yl]-N-(3-cyano-4-methoxy-phenyl)-N-(4-hydroxyphenyl)-1,2-dimethyl-pyrrole-3-carboxamide] | 9 | 248.7 | 0.04 | 0.4 | 9.9 | 0.09 | 0.0194 |
| COc1ccc(N(C(=O)c2cc(-c3cc4c(cc3C(=O)N3Cc5ccccc5C[C@H]3C)CN(C(=O)Cc3ccc(OCCN5CCOCC5)cc3)CC4)n(C)c2C)c2ccccc2)cc1C#N [Example 182, N-(3-cyano-4-methoxy-phenyl)-1,2-dimethyl-5-[7-[(3R)-3-methyl-3,4-dihydro-1H-isoquinoline-2-carbonyl]-2-[2-[4-(2-morpholinoethoxy)phenyl]acetyl]-3,4-dihydro-1H-isoquinolin-6-yl]-N-phenyl-pyrrole-3-carboxamide] | 11.8 | 107.1 | 0.11 | 1.5 | 13.3 | 0.3 | 0.0097 |
| COc1ncc(N(C(=O)c2cc(-c3cc4c(cc3C(=O)N3Cc5ccccc5C[C@H]3C)CN(C(=O)Cc3ccc(OCCN5CCOCC5)cc3)CC4)n(C)c2C)c2ccccc2)cc1F [Example 183, N-(5-fluoro-6-methoxy-3-pyridyl)-1,2-dimethyl-5-[7-[(3R)-3-methyl-3,4-dihydro-1H-isoquinoline-2-carbonyl]-2-[2-[4-(2-morpholinoethoxy)phenyl]acetyl]-3,4-dihydro-1H-isoquinolin-6-yl]-N-phenyl-pyrrole-3-carboxamide] | 15.1 | 117.3 | 0.13 | 5.6 | 43.8 | 0.35 | 0.0143 |
| Cc1c(C(=O)N(c2ccccc2)c2cnn(C)c2)cc(-c2cc3c(cc2C(=O)N2Cc4ccccc4C[C@H]2C)CN(C(=O)Cc2ccc(OCCN4CCOCC4)cc2)CC3)n1C [Example 184, 1,2-dimethyl-5-[7-[(3R)-3-methyl-3,4-dihydro-1H-isoquinoline-2-carbonyl]-2-[2-[4-(2-morpholinoethoxy)phenyl]acetyl]-3,4-dihydro-1H-isoquinolin-6-yl]-N-(1-methylpyrazol-4-yl)-N-phenyl-pyrrole-3-carboxamide] | 12.3 | 411.3 | 0.03 | 2 | 66.2 | 0.09 | 0.0061 |
| Cc1c(N(C(=O)c2cc(-c3cc4c(cc3C(=O)N3Cc5ccccc5C[C@H]3C)CN(C(=O)Cc3ccc(OCCN5CCOCC5)cc3)CC4)n(C)c2C)c2ccc(F)cc2)cc(C#N)n1C [Example 185, N-(5-cyano-1,2-dimethyl-pyrrol-3-yl)-N-(4-fluorophenyl)-1,2-dimethyl-5-[7-[(3R)-3-methyl-3,4-dihydro-1H-isoquinoline-2-carbonyl]-2-[2-[4-(2-morpholinoethoxy)phenyl]acetyl]-3,4-dihydro-1H-isoquinolin-6-yl]pyrrole-3-carboxamide] | 5.9 | 92.8 | 0.06 | 1.5 | 23.4 | 0.13 | 0.0051 |
| Cc1nn(C)cc1N(C(=O)c1cc(-c2cc3c(cc2C(=O)N2Cc4ccccc4C[C@H]2C)CN(C(=O)Cc2ccc(OCCN4CCOCC4)cc2F)CC3)n(C)c1C)c1ccccc1 [Example 187, N-(1,3-dimethylpyrazol-4-yl)-5-[2-[2-[2-fluoro-4-(2-morpholinoethoxy)phenyl]acetyl]-7-[(3R)-3-methyl-3,4-dihydro-1H-isoquinoline-2-carbonyl]-3,4-dihydro-1H-isoquinolin-6-yl]-1,2-dimethyl-N-phenyl-pyrrole-3-carboxamide] | 17.3 | 507.9 | 0.03 | 2.7 | 78.9 | 0.08 | 0.0069 |
| Cc1nn(C)cc1N(C(=O)c1cc(-c2cc3c(cc2C(=O)N2Cc4ccccc4C[C@H]2C)CN(C(=O)Cc2ccc(OCCN4CCOCC4)cc2)CC3)n(C)c1C)c1ccccc1 [Example 188, N-(1,3-dimethylpyrazol-4-yl)-1,2-dimethyl-5-[7-[(3R)-3-methyl-3,4-dihydro-1H-isoquinoline-2-carbonyl]-2-[2-[4-(2-morpholinoethoxy)phenyl]acetyl]-3,4-dihydro-1H-isoquinolin-6-yl]-N-phenyl-pyrrole-3-carboxamide] | 23.9 | 769.6 | 0.03 | 2.2 | 71.6 | 0.09 | 0.0113 |
| COCC(=O)N1CCc2cc(-c3cc(C(=O)N(c4ccccc4)c4cc(C#N)n(C)c4C)c(C)n3C)c(C(=O)N3Cc4ccccc4C[C@H]3CN3CCCCC3)cc2C1 [Example 189, N-(5-cyano-1,2-dimethyl-pyrrol-3-yl)-5-[2-(2-methoxyacetyl)-7-[(3S)-3-(1-piperidylmethyl)-3,4-dihydro-1H-isoquinoline-2-carbonyl]-3,4-dihydro-1H-isoquinolin-6-yl]-1,2-dimethyl-N-phenyl-pyrrole-3-carboxamide] | 33.4 | 176.8 | 0.19 | 17.4 | 92.0 | 1.99 | 0.0299 |
